Entries after “also recorded” stand apart in the source; their conditions may differ. *1 amine or outer side, *2 acyl side, *3 side chain or, on linkers, in order; H or OH if unused. Where no end group is shown, it is not given here. [ ]: non-standard residue; d: D form. εLys = N[C@@H](CCCCN[*:1])C(=O)[*:2]
Columns and labels:
[1] = Silica precipitation (mineralisation) by peptides; settings: silicic acid 25 mM, peptide 0.5 mg/mL, 50 mM phosphate buffer pH 7, RT
Experimental: The individual members of the peptide library were subjected to silica mineralisation conditions analogous to those used for the R5 peptide (C. C. Lechner and C. F. W. Becker, Chem. Sci., 2012, 3, 3500). Phosphate buffered solution at pH 7 was used as a background for the reaction, and peptides were individually incubated in this buffer for 24 h prior to silica precipitation. White precipitate was observable in all samples within the first five minutes following addition of the silicic acid.
Peptides were dissolved to a final concentration of 0.5 mg/mL in 50 mM potassium phosphate buffer at pH 7.0 and left standing at room temperature overnight. Silicic acid was generated by hydrolysis of 250 mM tetramethoxysilane in 1 mM aqueous HCl for 4 min. Silica precipitation reactions were initiated by addition of silicic acid to peptide solutions to a final concentration of 25 mM. Reactions were incubated at RT for 30 min. Silica precipitates were collected by centrifugation (5 min, 16.873×g) and washed twice with water. […] All precipitations were carried out in triplicates.

[2] = TEM imaging of peptides and peptide-silica mixtures; assay type: physicochemical; settings: phosphate buffer, absence of silicic acid
Experimental: Peptide and peptide-silica mixtures suspended in 50 mM phosphate buffer were applied onto carbon coated copper grid and subsequently viewed with Philips CM200 electron microscope operated at 200 kV.

[3] = Circular dichroism of peptide solutions; assay type: physicochemical; settings: for CD spectrum profile: 0.8 mM in 50 mM phosphate buffer pH 7, after 24 h incubation
Experimental: CD spectra were recorded on peptide solutions at 0.8 mM (by weight) in 50 mM phosphate buffer at pH 7. Solutions had been incubated at room temperature for a minimum of 24 h. Scans were performed in 1 nm increments with 3 s scans at 20° C. and averaged over 5 scans.
The CD spectrum of peptide 1 in the A range of 200-250 nm was fitted by use of the novel Beta Structure Selection algorithm with normalized root mean square deviation of 0.018 (A. Micsonai, F. Wien, L. Kernya, Y.-H. Lee, Y. Goto, M. Réfrégiers and J. Kardos, Proc. Natl. Acad. Sci., 2015, 112, E3095-E3103). The algorithm predicts that the secondary or tertiary structure of the peptide consists of approximately 56% random coils, 27% beta-sheets and 17% beta-turns.

[4] = from a solution of silicic acid; cited from earlier work
[5] = CD 200-250 nm fitted with Beta Structure Selection algorithm

Question: With rriil(εK)RRLL [Peptide 66] as the substance, how does the “capacity to precipitate silica” value [1] read?
Answer: still able to precipitate silica

Question: What does the source list for rriil(εK)RRIL [Peptide 8]?
Answer: diameter of peptide rods or narrow sheets (TEM) [2]: 80-200 nm; CD spectrum profile [3]: significantly lower magnitudes than those for peptides 1-4; also recorded: the minimum at 200 nm disappeared and the curve gained a positive character

Question: With rril(εK)RRIL [Peptide 6] as the substance, how does the CD spectrum profile [3] read?
Answer: significantly lower magnitudes than those for peptides 1-4

Question: Which “silica precipitation and morphology” value [4] does the source give for SSKKSGSYSGSKGSKRRIL [Peptide R5] here?
Answer: highly efficient in precipitating monodisperse silica particles

Question: Which CD spectrum profile [3] does the source give for rriIKRRIL [Peptide 5] here?
Answer: significantly lower magnitudes than those for peptides 1-4

Question: With “RRIIL(εK)RRIL (RRIIL[εLys]RRIL-OH; also: Lys6 bound via its epsilon amine to the preceding Leu (branched)) [Peptide 9]” as the substance, how does the CD spectrum profile [3] read?
Answer: profile was similar to that of peptides 1

Question: With KRRIL (truncated silaffin peptide I) as the substance, how does the “silica precipitation and morphology” value [4] read?
Answer: precipitate silica with a random morphology

Question: With rrilkrril [Peptide 2] as the substance, how does the CD spectrum profile [3] read?
Answer: mirror image of the spectrum of peptide 1

Question: For RRILKRRIL [Peptide 1], which CD spectrum profile [3] is on record?
Answer: random coil conformation

Question: And the “secondary structure: beta-sheets” value [3, 5]?
Answer: ~27%

Question: What about the “secondary structure: beta-turns” value [3, 5] of the same substance?
Answer: ~17%

Question: And the “secondary structure: random coils” value [3, 5]?
Answer: approximately 56%

Question: Which CD spectrum profile [3] does the source give for rril(εK)RRIIL [Peptide 7] here?
Answer: significantly lower magnitudes than those for peptides 1-4
